Source: PubChem BioAssay (NCI)
Where “and” joins values, the source holds several entries; their conditions need not be identical. Identical values can stand only once.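 Protocol summary: plate cells (96-well), add compound at 5 concentrations, incubate 48 h, interpolate endpoints linearly. GI50 is the concentration that inhibits growth by half. TGI marks complete inhibition of growth.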

Legend:
Experiment in all cases: NCI tumour cell line growth inhibition, 48 h
[1] = tested on: UACC-62 melanoma
[2] = tested on: SR leukemia
[3] = tested on: COLO 205 colon
[4] = tested on: MDA-MB-231 breast
[5] = tested on: RXF 393 renal
[6] = tested on: HT29 colon
[7] = tested on: NCI-H23 lung
[8] = tested on: BT-549 breast
[9] = tested on: SK-MEL-5 melanoma
[10] = tested on: UACC-257 melanoma

SMILES	TGI [1]	TGI [2] [µM]	TGI [3]	TGI [4]	TGI [5] [µM]	TGI [6] [µM]	TGI [7]	TGI [8]	TGI [9]	TGI [10]	GI50 [1]	GI50 [2]	GI50 [3]	GI50 [4]	GI50 [5]	GI50 [6]	GI50 [7]	GI50 [8]	GI50 [9]	GI50 [10]
Cc1noc(NC(=O)Nc2ccccc2F)c1C#N	> 45.4 µM	> 100	> 100 µM	> 33.5 µM	> 100	> 37.7	> 100 µM	> 100 µM	> 100 µM	> 51 µM										
C#Cc1ccc(-n2c(/C=C/c3ccc(O)cc3)nc3ncccc3c2=O)cc1	> 100 µM	> 100	> 100 µM	> 100 µM	4.41	> 100	> 100 µM	87.4 µM	7.45 µM	> 100 µM	4010 nM	3540 nM	> 100 µM	11.4 µM	1480 nM	52800 nM	5.52 µM	7.51 µM	2.24 µM	6.3 µM
COc1ccc(-c2cc(/C=C/C(=O)c3ccc(N)cc3)[nH]n2)cc1OC	10.9 µM	5.31	3.59 µM	17.2 µM	5.12	6.91	19.3 µM	2.94 µM	11.5 µM	19.5 µM	3110 nM	587 nM	1.88 µM	4.42 µM	2150 nM	2600 nM	4.21 µM	1.5 µM	3.16 µM	6.46 µM
COc1cc2nnc3c4cccnc4[nH]c3c2cc1OC	12.5 µM and 9.65 µM		16 µM and 11.6 µM	50 µM and > 100 µM			40.5 µM and 6.71 µM	43.9 µM and 35.1 µM	21.2 µM and 22.2 µM	50 µM and 27.7 µM	2900 nM and 2490 nM	117 nM and 39.5 nM	6.92 µM and 2.96 µM	3.14 µM and 2.69 µM	1170 nM and 707 nM	1810 nM and 1340 nM	11.1 µM and 2.34 µM	6.42 µM and 3.75 µM	8.57 µM and 7.33 µM	9.13 µM and 3.32 µM
C=CCN(CC=C)C(=O)c1cc(C)nc2c1c(=O)n(-c1ccccc1)c(=O)n2CCCN1CCN(c2ccccc2OC)CC1	> 50 µM	> 50	> 50 µM	> 50 µM	> 50	> 50	> 50 µM	> 50 µM	> 50 µM	> 50 µM	> 50000 nM	> 50000 nM	> 50 µM	> 50 µM	> 50000 nM	> 50000 nM	> 50 µM	> 50 µM	> 50 µM	> 50 µM
CC(=O)Oc1ccc(C2=Cc3ccc(OC(C)=O)cc3OC2C)cc1 (stereo unspecified)	25.1 µM	9.95	> 100 µM	63.7 µM	26.4	> 100	> 100 µM	69.9 µM	29.9 µM	64.1 µM	4610 nM	1700 nM	27.9 µM	5.06 µM	4110 nM	20700 nM	5.3 µM	4.66 µM	7.24 µM	15 µM
Cn1c(=O)c2nc3sc4c(n3c2n(C)c1=O)C(=O)c1ccccc1C4=O	> 100 µM	> 73	> 100 µM	> 64.6 µM	> 55.3	> 56.2	> 75.1 µM	> 61.5 µM	> 100 µM	> 100 µM										
Nc1nc(=S)c2ncn(C3OC(COP(=O)(O)O)C(O)C3O)c2[nH]1 (stereo unspecified)	6.14 µM	> 100	9.04 µM	> 100 µM	9.75	> 100	> 100 µM	> 100 µM	11.7 µM	> 100 µM	539 nM	268 nM	2.66 µM	0.717 µM	1430 nM	1200 nM	1.93 µM	2.38 µM	3.25 µM	4.57 µM
C(=Nc1nc(SCc2ccccc2)nc2[nH]ncc12)c1cccs1	61.8 µM	65.3	76.4 µM	> 100 µM	> 100	> 100	> 100 µM	> 100 µM	19.8 µM	> 100 µM	25400 nM	18700 nM	22.2 µM	37.3 µM	47100 nM	38200 nM	66.4 µM	41 µM	2.77 µM	53.7 µM
Cc1cc(Cl)nc(N(CCNc2ccnc3cc(Cl)ccc23)Cc2ccco2)n1	3.27 µM	4.39	3.23 µM	3.76 µM	2.89	6.83	9.65 µM	3.3 µM	3.06 µM	4.16 µM	1690 nM	1810 nM	1.64 µM	1.85 µM	1240 nM	2110 nM	2.57 µM	1.66 µM	1.67 µM	1.97 µM
CN(C)c1ccc(-c2cc(-c3ccc(Nc4nc(Nc5ccc(Cl)cc5)nc(Nc5ccc(Cl)cc5)n4)cc3)nc(N)c2C#N)cc1	92.7 µM	9.83	> 100 µM	60.3 µM	6.77	> 100	> 100 µM	> 100 µM	> 100 µM	> 100 µM	20400 nM	1320 nM	7.88 µM	5.51 µM	1960 nM	8850 nM	30.5 µM	71.2 µM	4.56 µM	12.3 µM
COc1ccccc1CNCCN1C(=O)c2ccc3c4c(ccc(c24)C1=O)C(=O)N(CCNCc1ccccc1OC)C3=O	3.39 µM	0.581	0.345 µM	0.817 µM	0.397	0.447	0.394 µM	1.64 µM	1.4 µM	0.387 µM	1770 nM	178 nM	0.169 µM	0.277 µM	180 nM	215 nM	0.19 µM	0.502 µM	0.348 µM	0.196 µM
O=C(c1cccs1)c1c(C(F)(F)F)n([O-])c2cc(Cl)c(Cl)cc2[n+]1=O	2.54 µM		4.13 µM	2.07 µM	3.23	> 100	2.37 µM	2.52 µM	2.65 µM	3.85 µM	1180 nM	< 21.4 nM	2 µM	0.647 µM	1790 nM	405 nM	0.919 µM	0.975 µM	1.28 µM	1.86 µM
O=C(Nc1ccc(OC(F)(F)Cl)cc1)c1cnc(N2CC[C@@H](O)C2)c(-c2ccn[nH]2)c1	19.5 µM	50.9	19.7 µM	21.5 µM	35.6	12.1	33.5 µM	24.7 µM	22.7 µM	22.6 µM	5070 nM	10800 nM	5.58 µM	4.73 µM	15800 nM	3120 nM	13.6 µM	10.6 µM	10.7 µM	10.5 µM
N#CC(C#N)=C/C=C(\Sc1ccc(Cl)cc1)c1ccc(F)cc1	10.3 µM	> 100	> 38.5 µM	6.25 µM	> 100	> 51.6	2.05 µM	6.22 µM	6.33 µM	14.7 µM	2030 nM	171 nM	4.11 µM	1.84 µM	5360 nM	2060 nM	0.528 µM	1.16 µM	1.76 µM	6.88 µM
